{
  "source": "paper PMC4783567",
  "about": "“The Effect of Vinpocetine on Human Cytochrome P450 Isoenzymes by Using a Cocktail Method” (Evidence-based Complementary and Alternative Medicine : eCAM, 2016)",
  "experiment_in_all_cases": "five-probe cocktail in human liver microsomes, LC-MS/MS of metabolites",
  "assay_type_in_all_cases": "biochemical",
  "key": {"[1]": {"biological_target": "T1, CYP2C9 (Homo sapiens, UniProt P11712)", "T1 construct": "native enzyme in pooled human liver microsomes (BD Gentest); activity read by tolbutamide 4-hydroxylation", "T1 sequence (P11712 whole entry)": "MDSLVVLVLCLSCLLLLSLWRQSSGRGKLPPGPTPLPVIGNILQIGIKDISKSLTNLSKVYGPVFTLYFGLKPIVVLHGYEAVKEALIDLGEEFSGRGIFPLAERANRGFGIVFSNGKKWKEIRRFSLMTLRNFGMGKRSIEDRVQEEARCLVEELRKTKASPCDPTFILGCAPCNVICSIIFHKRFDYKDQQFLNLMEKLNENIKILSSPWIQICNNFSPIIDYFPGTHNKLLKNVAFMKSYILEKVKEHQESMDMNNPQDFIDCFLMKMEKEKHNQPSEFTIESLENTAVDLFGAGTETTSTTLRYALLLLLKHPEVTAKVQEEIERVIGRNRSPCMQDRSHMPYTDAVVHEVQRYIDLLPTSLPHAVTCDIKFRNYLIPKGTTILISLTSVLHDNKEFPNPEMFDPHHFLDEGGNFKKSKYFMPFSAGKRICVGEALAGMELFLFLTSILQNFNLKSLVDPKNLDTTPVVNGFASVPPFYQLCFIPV", "conditions": "tolbutamide 4-hydroxylation, printed 100 mM tolbutamide (unit as printed), 1 mM NADPH, 3.3 mM MgCl2, pH 7.4, 37°C, 30 min; b29 prints 68.91; Table 2 prints vinpocetine in μg/mL, methods in μM", "description": "five-probe cocktail in human liver microsomes, LC-MS/MS of metabolites on CYP2C9"}, "[2]": {"biological_target": "T2, CYP2C19 (Homo sapiens, UniProt P33261)", "T2 construct": "native enzyme in pooled human liver microsomes (BD Gentest); activity read by omeprazole 5-hydroxylation", "T2 sequence (P33261 whole entry)": "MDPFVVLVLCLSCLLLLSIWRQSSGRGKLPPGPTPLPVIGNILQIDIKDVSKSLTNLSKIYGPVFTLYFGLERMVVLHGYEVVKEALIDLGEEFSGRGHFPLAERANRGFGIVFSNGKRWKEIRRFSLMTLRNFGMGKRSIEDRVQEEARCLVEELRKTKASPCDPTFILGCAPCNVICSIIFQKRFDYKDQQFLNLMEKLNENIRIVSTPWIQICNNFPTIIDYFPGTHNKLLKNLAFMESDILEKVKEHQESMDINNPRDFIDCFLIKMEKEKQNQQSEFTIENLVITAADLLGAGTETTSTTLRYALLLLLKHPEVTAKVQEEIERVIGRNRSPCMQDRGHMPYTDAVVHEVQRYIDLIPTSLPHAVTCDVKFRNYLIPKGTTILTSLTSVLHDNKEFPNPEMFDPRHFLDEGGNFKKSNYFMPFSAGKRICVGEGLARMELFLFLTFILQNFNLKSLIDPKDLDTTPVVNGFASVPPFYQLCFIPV", "conditions": "omeprazole 5-hydroxylation, printed 50 mM omeprazole (unit as printed), 1 mM NADPH, pH 7.4, 37°C; unreliable (extrapolated above top concentration 100 μM; text says > 100 μM)", "description": "five-probe cocktail in human liver microsomes, LC-MS/MS of metabolites on CYP2C19"}, "[3]": {"biological_target": "T3, CYP2D6 (Homo sapiens, UniProt P10635)", "T3 construct": "native enzyme in pooled human liver microsomes (BD Gentest); activity read by dextrorphan formation from dextromethorphan", "T3 sequence (P10635 whole entry)": "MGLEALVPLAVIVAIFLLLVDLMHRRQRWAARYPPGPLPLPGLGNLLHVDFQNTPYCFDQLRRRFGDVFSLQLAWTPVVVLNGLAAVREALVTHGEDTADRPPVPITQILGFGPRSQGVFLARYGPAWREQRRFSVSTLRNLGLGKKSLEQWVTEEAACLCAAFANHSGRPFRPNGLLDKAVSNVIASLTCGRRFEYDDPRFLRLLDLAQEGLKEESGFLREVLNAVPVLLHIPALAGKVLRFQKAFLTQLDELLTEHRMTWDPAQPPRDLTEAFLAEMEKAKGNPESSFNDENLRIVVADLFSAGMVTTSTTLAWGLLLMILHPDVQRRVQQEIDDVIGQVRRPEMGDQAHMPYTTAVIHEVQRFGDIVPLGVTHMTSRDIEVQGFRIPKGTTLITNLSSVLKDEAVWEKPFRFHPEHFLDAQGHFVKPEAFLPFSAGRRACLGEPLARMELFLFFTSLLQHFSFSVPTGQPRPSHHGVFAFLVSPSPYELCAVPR", "conditions": "dextrorphan formation, printed 5 mM dextromethorphan (unit as printed), 1 mM NADPH, pH 7.4, 37°C; unreliable (extrapolated above top concentration 100 μM; text says > 100 μM)", "description": "five-probe cocktail in human liver microsomes, LC-MS/MS of metabolites on CYP2D6"}, "[4]": {"biological_target": "T4, CYP3A4 (Homo sapiens, UniProt P08684)", "T4 construct": "native enzyme in pooled human liver microsomes (BD Gentest); activity read by testosterone 6beta-hydroxylation (CYP3A5 may contribute)", "T4 sequence (P08684 2-503)": "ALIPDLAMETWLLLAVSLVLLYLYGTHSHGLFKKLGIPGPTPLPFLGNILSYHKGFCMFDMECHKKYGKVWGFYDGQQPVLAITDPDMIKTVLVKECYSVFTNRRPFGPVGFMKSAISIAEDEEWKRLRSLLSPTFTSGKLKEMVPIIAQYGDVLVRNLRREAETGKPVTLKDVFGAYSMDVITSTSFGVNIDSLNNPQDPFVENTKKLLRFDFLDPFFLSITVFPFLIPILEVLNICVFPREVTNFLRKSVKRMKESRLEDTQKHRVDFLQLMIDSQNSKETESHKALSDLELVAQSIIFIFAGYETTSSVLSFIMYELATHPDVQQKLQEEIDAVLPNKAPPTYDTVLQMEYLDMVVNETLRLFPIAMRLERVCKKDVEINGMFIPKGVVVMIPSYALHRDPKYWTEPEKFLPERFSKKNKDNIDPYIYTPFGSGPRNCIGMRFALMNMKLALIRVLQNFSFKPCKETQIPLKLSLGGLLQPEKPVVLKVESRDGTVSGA", "conditions": "testosterone 6β-hydroxylation, printed 50 mM testosterone (unit as printed), otherwise as row above; unreliable (extrapolated above top concentration 100 μM; text says > 100 μM)", "description": "five-probe cocktail in human liver microsomes, LC-MS/MS of metabolites on CYP3A4"}, "[5]": {"biological_target": "T5, CYP2E1 (Homo sapiens, UniProt P05181)", "T5 construct": "native enzyme in pooled human liver microsomes (BD Gentest); activity read by chlorzoxazone 6-hydroxylation", "T5 sequence (P05181 whole entry)": "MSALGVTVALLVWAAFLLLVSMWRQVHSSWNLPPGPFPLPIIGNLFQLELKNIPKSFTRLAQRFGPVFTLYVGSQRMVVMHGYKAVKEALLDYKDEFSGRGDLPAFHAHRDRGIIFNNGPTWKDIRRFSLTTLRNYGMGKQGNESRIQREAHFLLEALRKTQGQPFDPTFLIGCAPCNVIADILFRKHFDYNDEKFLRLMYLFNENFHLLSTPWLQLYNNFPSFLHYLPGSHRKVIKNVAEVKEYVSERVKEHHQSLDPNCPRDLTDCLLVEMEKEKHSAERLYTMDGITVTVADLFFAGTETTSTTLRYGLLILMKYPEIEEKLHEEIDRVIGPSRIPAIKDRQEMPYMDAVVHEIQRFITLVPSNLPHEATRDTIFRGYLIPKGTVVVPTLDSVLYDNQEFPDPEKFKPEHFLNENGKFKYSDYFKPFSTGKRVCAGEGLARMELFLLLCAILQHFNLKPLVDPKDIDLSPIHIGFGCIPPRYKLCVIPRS", "conditions": "chlorzoxazone 6-hydroxylation, printed 50 mM chlorzoxazone (unit as printed), 1 mM NADPH, pH 7.4, 37°C; unreliable (extrapolated above top concentration 100 μM; text says > 100 μM)", "description": "five-probe cocktail in human liver microsomes, LC-MS/MS of metabolites on CYP2E1"}},
  "data": [
    {"smiles": "CCOC(=O)C1=C[C@]2(CC)CCCN3CCc4c(n1c1ccccc41)[C@@H]32", "note": "[Vinpocetine, ethyl (3α,16α)-eburnamenine-14-carboxylate]", "values": [
      {"measurement": "IC50 (μM)", "setting": "[1]", "value": "68.96 [95% CI: 49.14–96.79] μM"},
      {"measurement": "IC50", "setting": "[2]", "value": 285.1, "unit": "µM"},
      {"measurement": "IC50", "setting": "[3]", "value": 104.4, "unit": "µM"},
      {"measurement": "IC50", "setting": "[4]", "value": 107.1, "unit": "µM"},
      {"measurement": "IC50", "setting": "[5]", "value": 2837, "unit": "µM"}
    ]}
  ]
}
